# Reference: patent US9101562B2, “Additives for chlorine dioxide-containing compositions” (BASF CORPORATION, priority 2010, dated 2015)
# Read-outs that look alike come from different tables or passages of the source. Where a SMILES comes first, the peptide text is derived from it.
# Experiment: Chlorine dioxide compatibility: ClO2 decrease in 200 ppm ClO2 test samples containing an additive (UV/Vis absorption or titration)
# Assay type: physicochemical
# Details: for Chlorine dioxide (ppm): 200 ppm ClO2 composition with sucralose 0.5 wt. %
# [1] = Table 2, […], interpolated to 8 hours
# [2] = Table 3, […], interpolated to 8 hours
# [3] = Table 2, 200 ppm ClO2 test sample, single additive at listed wt. %, interpolated to 8 hours
# [4] = Table 3, 200 ppm ClO2 test sample, single additive at listed wt. %, interpolated to 8 hours
# [5] = FIG. 1A, 200 ppm ClO2, single sweetener at 0.5 wt. %
molecule,measurement,setting,value
"N[C@@H](CCC(=O)O)C(=O)O [compound 21, l-Glutamic Acid]",ClO2 decrease @ 8 hrs,[1],1%
t-Cinnamaldehyde [compound 26],ClO2 decrease @ 8 hrs,[2],37%
"CC(C)[C@@H]1CC[C@@H](C)CC1=O [compound 4, Menthone]",ClO2 decrease @ 8 hrs,[3],4%
"C/C=C/C=C/C(=O)O [compound 29, Sorbic Acid]",ClO2 decrease @ 8 hrs,[4],100%
"C/C=C/C=C/C(=O)[O-].[K+] [compound 35, Potassium Sorbate]",ClO2 decrease @ 8 hrs,,99%
"NCCO [compound 38, Monoethanolamine]",ClO2 decrease @ 8 hrs,,92%
"O=C1O[C@H]([C@@H](O)CO)C(O)=C1O [compound 28, Ascorbic Acid]",ClO2 decrease @ 8 hrs,[4],100%
"CC12CCC(CC1=O)C2(C)C (stereo not shown) [Comp. 3, Camphor]",ClO2 decrease @ 8 hrs,[3],2%
"CC(C)[C@@H]1CC[C@@H](C)C[C@H]1O [Comp. 1, L-menthol]",ClO2 decrease @ 8 hrs,[3],1%
"CCOC(C)=O [compound 16, Ethyl Acetate]",ClO2 decrease @ 8 hrs,,3%
"COC(=O)[C@H](Cc1ccccc1)NC(=O)[C@@H](N)CC(=O)O [compound 7, Aspartame] (H-Asp-Phe-OMe)",chlorine dioxide concentration versus time behaviour,[5],"steep immediate declines in chlorine dioxide concentration, followed by much more gradual declines"
same,ClO2 decrease @ 8 hrs,[3],2%
"CCO [compound 17, Ethanol]",ClO2 decrease @ 8 hrs,[3],4%
"CCNC(=O)C1CC(C)CCC1C(C)C (stereo not shown) [compound 5, Ethyl Menthane Carboxamide]",ClO2 decrease @ 8 hrs,[3],5%
"COc1ccc(C=O)cc1OC [compound 30, Methyl Vanillin]",ClO2 decrease @ 8 hrs,,100%
"O.O.O=C1NS(=O)(=O)c2ccccc21.[Na] [compound 9, Sodium saccharin Dihydrate]",ClO2 decrease @ 8 hrs,,3%
same,chlorine dioxide concentration versus time behaviour,,"steep immediate declines in chlorine dioxide concentration, followed by much more gradual declines"
"OCC(O)CO [compound 15, Glycerol]",ClO2 decrease @ 8 hrs,[3],1%
"OCc1ccccc1 [compound 12, Benzyl Alcohol]",ClO2 decrease @ 8 hrs,[3],8%
"CC(O)CO (stereo not shown) [compound 13, Propylene Glycol]",ClO2 decrease @ 8 hrs,[1],1%
"CC12CCC(CC1)C(C)(C)O2 [compound 6, Eucalyptol]",ClO2 decrease @ 8 hrs,[3],13%
"CC1=CC(=O)NS(=O)(=O)O1 [compound 32, Acesulfame Potassium]",ClO2 decrease @ 8 hrs,,100%
same,chlorine dioxide concentration versus time behaviour,,consumed all of the chlorine dioxide within about the first hour
"OC[C@H]1O[C@H](O[C@]2(CCl)O[C@H](CCl)[C@@H](O)[C@@H]2O)[C@H](O)[C@@H](O)[C@H]1Cl [compound 10, Sucralose]",chlorine dioxide concentration versus time behaviour,[5],"steep immediate declines in chlorine dioxide concentration, followed by much more gradual declines"
same,ClO2 decrease @ 8 hrs,[3],9%
same,chlorine dioxide present at 8 hours,interpolation of the data at 0.88 hours and 15.35 hours,166.5 ppm
same,Chlorine dioxide (ppm),time 0.25 hours,183 ppm
same,Chlorine dioxide (ppm),time 0.88 hours,168 ppm
same,Chlorine dioxide (ppm),time 15.35 hours,165 ppm
same,Chlorine dioxide (ppm),time 22.62 hours,165 ppm
same,Chlorine dioxide (ppm),time 70.58 hours,163 ppm
"O=Cc1ccccc1 [compound 2, Benzaldehyde]",ClO2 decrease @ 8 hrs,[1],1%
"CC=Cc1ccc(OC)cc1 [compound 31, Anethole]",ClO2 decrease @ 8 hrs,[2],100%
"CC(C)=O [compound 19, Acetone]",ClO2 decrease @ 8 hrs,,0.04%
